Source: EP0978561A1, “Antisense oligonucleotides for the inhibition of VEGF expression” (Hoechst Marion Roussel Deutschland GmbH, priority 1998, dated 2000)
Like-named read-outs stand apart in the source and are kept apart here.

System: human VEGF
Assay: VEGF protein assay: ELISA of secreted VEGF in conditioned medium of oligonucleotide-treated cells
Type: cell-based
Conditions: cells treated 5 hours with oligonucleotide and Cellfectin, secreted VEGF in supernatant, 100% = Cellfectin without oligonucleotide, read-out: IC50 for VEGF secretion
Protocol: The cells are plated in 96-well plates at 30,000 cells/well, 150 ul medium per well (medium depends on cell type). The next day, Cellfectin (Gibco-BRL) is diluted to 400 ug/ml in water (solution A). Oligonucleotides are diluted to 40X the final desired concentration in water (solution B). Equal amounts of solutions A and B are mixed, to give the desired volume of a solution that is 200 µg/ml Cellfectin and 20X oligonucleotide, and the mixture left at room temperature for 30 minutes. After 30 minutes, 19 volumes of Optimem (Gibco-BRL) is added to give a final solution that is 10 µg/ml Cellfectin and 1X oligonucleotide (solution C). Medium is removed from the cells, the wells are washed 2X with Optimem, and 150 µl solution C added to each well. The plates are then returned to the incubator (37°C, 5% CO2). After 5 hours, the Cellfectin/oligonucleotide solution is removed and replaced with 150 µl of regular growth medium. VEGF protein and mRNA assays are performed beginning 19 hours later.
Samples (from example 4) of conditioned medium are taken from the desired wells and assayed for the presence of human VEGF using the human VEGF ELISA kit from R & D systems.The assay protocol is the one provided with the kit.
The IC50s are calculated based on a value of 100% for the amount of VEGF protein or mRNA in cells treated with Cellfectin but no oligonucleotide.

Substance	IC50	IC50 (listed as ON54)
5'-p*(2'5'-Co Co Co Co)(teg) G*C*G C*T G A*T*A G A*C*A T*C*C*A*T*G -3' (GCGCTGATAGACATCCATG; chemistry not fully specified) [ON 53, 2'5(Co)4-conjugate all-2'-O-methyl]	1500 nM	
5'-p*-(2'5'-rA*rA*rA*rA)*(teg) G*C*G C*T G A*T*A G A*C*A T*C*C*A*T*G -3' (GCGCTGATAGACATCCATG; 5'-phosphate 2'5' rA4, teg linker, all-2'-O-methyl, chemistry not fully specified) [ON 54, 2'5'(rA)4-conjugate all-2'-O-methyl]	230 nM	~230 nM
